Test results: patent publication US8044079B2, “Substituted oxindole derivatives, medicaments containing said derivatives and use thereof” (Abbott GmbH & Co. KG, priority 2005, dated 2011)

molecular target: T1, human vasopressin V1b receptor (Homo sapiens, UniProt P47901); experiment: Vasopressin V1b receptor binding test; settings: membranes of CHO-K1 cells with human V1b receptor, displacement of 1.5 nM 3H-AVP; for compounds with more than one stereogenic center the diastereomer with greater affinity
T1 construct: expressed in transfected cells; host or cells: CHO-K1 (cell line hV1b_3H2_CHO), membrane preparation
T1 sequence (P47901 1-424): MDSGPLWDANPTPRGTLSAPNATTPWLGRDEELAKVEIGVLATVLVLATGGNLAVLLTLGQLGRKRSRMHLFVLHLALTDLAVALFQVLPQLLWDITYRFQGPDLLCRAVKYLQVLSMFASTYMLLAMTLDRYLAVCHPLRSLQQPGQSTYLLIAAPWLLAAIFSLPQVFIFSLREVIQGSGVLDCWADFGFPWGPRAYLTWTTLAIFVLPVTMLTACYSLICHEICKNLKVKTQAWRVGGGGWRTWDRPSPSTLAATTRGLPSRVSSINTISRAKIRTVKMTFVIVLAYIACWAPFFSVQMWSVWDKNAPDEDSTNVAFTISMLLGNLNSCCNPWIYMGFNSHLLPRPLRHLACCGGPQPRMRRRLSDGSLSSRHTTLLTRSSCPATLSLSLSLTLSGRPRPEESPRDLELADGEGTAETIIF
Procedure, shortened: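 Radioligand displacement on membranes carrying human V1b receptor in 50 mM tris, 10 mM MgCl2, 0.1% BSA, pH 7.4, 2% DMSO final; 60 min at room temperature, nonspecific binding with 1 μM AVP. Free ligand removed by filtration, bound counted by liquid scintillation, Ki from nonlinear regression of triplicates.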

Compared with COc1ccc(S(=O)(=O)N2C(=O)C(c3ccc(CN4CCOCC4)cc3OC)(N3CCC[C@H]3c3ncco3)c3cc(Cl)ccc32)cc1 (stereo partly drawn) [Example 146, 5-Chloro-1-(4-methoxybenzenesulfonyl)-3-(2-methoxy-4-(morpholin-4-ylmethyl)phenyl)-3-((S)-2-oxazol-2-yl-pyrrolidin-1-yl)-1,3-dihydroindol-2-one], COc1ccc(S(=O)(=O)N2C(=O)C(c3ccc(CN4CCNCC4)cc3OC)(N3CCC[C@H]3c3ncco3)c3cc(C#N)ccc32)cc1 (stereo partly drawn) [Example 153, 5-Cyano-1-(4-methoxybenzenesulfonyl)-3-(2-methoxy-4-piperazin-1-ylmethylphenyl)-3-((S)-2-oxazol-2-yl-pyrrolidin-1-yl)-1,3-dihydroindol-2-one] is lower in Ki: 10 to 100 nM for the first, less than 10 nM for the second. The second binds more tightly here.

COc1ccc(S(=O)(=O)N2C(=O)C(c3ccc(CN4CCN(CCO)CC4)cc3OC)(N3CCC[C@H]3c3ncco3)c3cc(C#N)ccc32)cc1 (stereo partly drawn) [Example 147, 5-Cyano-3-{4-[4-(2-hydroxyethyl)piperazin-1-ylmethyl]-2-methoxyphenyl}-1-(4-methoxybenzenesulfonyl)-3-((S)-2-oxazol-2-yl-pyrrolidin-1-yl)-1,3-dihydroindol-2-one] and CCN1CCN(Cc2ccc(C3(N4CCC[C@H]4c4ncco4)C(=O)N(S(=O)(=O)c4ccc(OC)cc4)c4ccc(C#N)cc43)c(OC)c2)CC1 (stereo partly drawn) [Example 148, 5-Cyano-3-[4-(4-ethylpiperazin-1-ylmethyl)-2-methoxyphenyl]-1-(4-methoxybenzenesulfonyl)-3-((S)-2-oxazol-2-yl-pyrrolidin-1-yl)-1,3-dihydroindol-2-one] cannot be ordered by Ki: less than 10 nM for the first, less than 10 nM for the second.

COc1ccc(S(=O)(=O)N2C(=O)C(c3cc(CN(C)C)ccc3OC)(N3C[C@H](O)C[C@H]3c3ncco3)c3cc(C#N)ccc32)cc1 (stereo partly drawn) [Example 150, 5-Cyano-3-(5-dimethylaminomethyl-2-methoxyphenyl)-3-((2S,4R)-4-hydroxy-2-oxazol-2-yl-pyrrolidin-1-yl)-1-(4-methoxybenzenesulfonyl)-1,3-dihydroindol-2-one] and CNCc1ccc(OC)c(C2(N3C[C@H](O)C[C@H]3c3ncco3)C(=O)N(S(=O)(=O)c3ccc(OC)cc3)c3ccc(C#N)cc32)c1 (stereo partly drawn) [Example 163, 5-Cyano-3-((2S,4R)-4-hydroxy-2-oxazol-2-yl-pyrrolidin-1-yl)-1-(4-methoxybenzenesulfonyl)-3-(2-methoxy-5-methylaminomethylphenyl)-1,3-dihydroindol-2-one] cannot be ordered by Ki: less than 10 nM for the first, less than 10 nM for the second.

CCNCc1ccc(OC)c(C2(N3C[C@H](O)C[C@H]3c3ncco3)C(=O)N(S(=O)(=O)c3ccc(OC)cc3)c3ccc(C#N)cc32)c1 (stereo partly drawn) [Example 151, 5-Cyano-3-(5-ethylaminomethyl-2-methoxyphenyl)-3-((2S,4R)-4-hydroxy-2-oxazol-2-yl-pyrrolidin-1-yl)-1-(4-methoxybenzenesulfonyl)-1,3-dihydroindol-2-one] and COc1ccc(S(=O)(=O)N2C(=O)C(c3cc(CN4CCNCC4)ccc3OC)(N3C[C@H](O)C[C@H]3c3ncco3)c3cc(C#N)ccc32)cc1 (stereo partly drawn) [Example 160, 5-Cyano-3-((2S,4R)-4-hydroxy-2-oxazol-2-yl-pyrrolidin-1-yl)-1-(4-methoxybenzenesulfonyl)-3-(2-methoxy-5-piperazin-1-ylmethylphenyl)-1,3-dihydroindol-2-one] cannot be ordered by Ki: less than 10 nM for the first, less than 10 nM for the second.

CCN1CCN(Cc2ccc(C3(N4CCC[C@H]4c4ncco4)C(=O)N(S(=O)(=O)c4ccc(C#N)cc4)c4ccc(Cl)cc43)c(OC)c2)CC1 (stereo partly drawn) [Example 152, 5-Chloro-3-[4-(4-ethylpiperazin-1-ylmethyl)-2-methoxyphenyl]-3-((S)-2-oxazol-2-yl-pyrrolidin-1-yl)-1-(4-cyanobenzenesulfonyl)-1,3-dihydroindol-2-one] and COc1cc(CN2CCN(C)CC2)ccc1C1(N2CCC[C@H]2c2ncco2)C(=O)N(S(=O)(=O)c2ccc(C#N)cc2)c2ccc(Cl)cc21 (stereo partly drawn) [Example 158, 5-Chloro-3-[2-methoxy-4-(4-methylpiperazin-1-ylmethyl)phenyl]-3-((S)-2-oxazol-2-yl-pyrrolidin-1-yl)-1-(4-cyanobenzenesulfonyl)-1,3-dihydroindol-2-one] cannot be ordered by Ki: less than 10 nM for the first, less than 10 nM for the second.

First: COc1ccc(S(=O)(=O)N2C(=O)C(c3ccc(CNCCO)cc3OC)(N3CCC[C@H]3c3ncco3)c3cc(C#N)ccc32)cc1 (stereo partly drawn) [Example 154, 5-Cyano-3-{4-[(2-hydroxyethylamino)methyl]-2-methoxyphenyl}-1-(4-methoxybenzenesulfonyl)-3-((S)-2-oxazol-2-yl-pyrrolidin-1-yl)-1,3-dihydroindol-2-one]
Second: CCCNCc1ccc(C2(N3CCC[C@H]3c3ncco3)C(=O)N(S(=O)(=O)c3ccc(C#N)cc3)c3ccc(Cl)cc32)c(OC)c1 (stereo partly drawn) [Example 159, 5-Chloro-3-(2-methoxy-4-propylaminomethylphenyl)-3-((S)-2-oxazol-2-yl-pyrrolidin-1-yl)-1-(4-cyanobenzenesulfonyl)-1,3-dihydroindol-2-one]
The Ki of the first is lower: less than 10 nM for the first, 10 to 100 nM for the second.

CNCc1ccc(OC)c(C2(N3CCCC3c3nccs3)C(=O)N(S(=O)(=O)c3ccc(OC)cc3)c3ccc(Cl)cc32)c1 (centres unmarked) [Example 155, 5-Chloro-1-(4-methoxybenzenesulfonyl)-3-(2-methoxy-5-methylaminomethylphenyl)-3-(2-thiazol-2-yl-pyrrolidin-1-yl)-1,3-dihydroindol-2-one] and C=CCNCc1ccc(OC)c(C2(N3CCC[C@H]3c3ncco3)C(=O)N(S(=O)(=O)c3ccc(OC)cc3)c3ccc(Cl)cc32)c1 (stereo partly drawn) [Example 161, 5-Chloro-3-(5-allylaminomethyl-2-methoxyphenyl)-1-(4-methoxybenzenesulfonyl)-3-((S)-2-oxazol-2-yl-pyrrolidin-1-yl)-1,3-dihydroindol-2-one] cannot be ordered by Ki: less than 10 nM for the first, less than 10 nM for the second.

COc1cc(CN(C)C)ccc1C1(N2CCC[C@H]2c2ncco2)C(=O)N(S(=O)(=O)c2ccc(C#N)cc2)c2ccc(Cl)cc21 (stereo partly drawn) [Example 156, 5-Chloro-3-(4-dimethylaminomethyl-2-methoxyphenyl)-3-((S)-2-oxazol-2-yl-pyrrolidin-1-yl)-1-(4-cyanobenzenesulfonyl)-1,3-dihydroindol-2-one] and COc1cc(CN2CCCC2)ccc1C1(N2CCC[C@H]2c2ncco2)C(=O)N(S(=O)(=O)c2ccc(C#N)cc2)c2ccc(Cl)cc21 (stereo partly drawn) [Example 157, 5-Chloro-3-(2-methoxy-4-pyrrolidin-1-ylmethylphenyl)-3-((S)-2-oxazol-2-yl-pyrrolidin-1-yl)-1-(4-cyanobenzenesulfonyl)-1,3-dihydroindol-2-one] fall in the same range of Ki: 10 to 100 nM for the first, 10 to 100 nM for the second.

COc1cc(CN2CCNCC2)ccc1C1(N2CCC[C@H]2c2ncco2)C(=O)N(S(=O)(=O)c2ccc(C#N)cc2)c2ccc(Cl)cc21 (stereo partly drawn) [Example 162, 5-Chloro-3-(2-methoxy-4-piperazin-1-ylmethylphenyl)-3-((S)-2-oxazol-2-yl-pyrrolidin-1-yl)-1-(4-cyanobenzenesulfonyl)-1,3-dihydroindol-2-one] and COc1ccc(S(=O)(=O)N2C(=O)C(c3ccc(CN4CCCCC4)cc3OC)(N3C[C@H](O)C[C@H]3c3ncco3)c3cc(Cl)ccc32)cc1 (stereo partly drawn) [Example 169, 5-Chloro-3-((2S,4R)-4-hydroxy-2-oxazol-2-yl-pyrrolidin-1-yl)-1-(4-methoxybenzenesulfonyl)-3-(2-methoxy-4-piperidin-1-ylmethylphenyl)-1,3-dihydroindol-2-one] cannot be ordered by Ki: less than 10 nM for the first, less than 10 nM for the second.

COc1ccc(S(=O)(=O)N2C(=O)C(c3cc(CN4CCN(C)CC4)cnc3OC)(N3CCC[C@H]3c3ncco3)c3cc(Cl)ccc32)cc1 (stereo partly drawn) [Example 164, 5-Chloro-1-(4-methoxybenzenesulfonyl)-3-[2-methoxy-5-(4-methylpiperazin-1-ylmethyl)pyridin-3-yl]-3-((S)-2-oxazol-2-yl-pyrrolidin-1-yl)-1,3-dihydroindol-2-one] and CNCc1cnc(OC)c(C2(N3CCC[C@H]3c3ncco3)C(=O)N(S(=O)(=O)c3ccc(OC)cc3)c3ccc(Cl)cc32)c1 (stereo partly drawn) [Example 167, 5-Chloro-1-(4-methoxybenzenesulfonyl)-3-(2-methoxy-5-methylaminomethylpyridin-3-yl)-3-((S)-2-oxazol-2-yl-pyrrolidin-1-yl)-1,3-dihydroindol-2-one] cannot be ordered by Ki: less than 10 nM for the first, less than 10 nM for the second.

COc1ccc(S(=O)(=O)N2C(=O)C(c3ccc(CN4CCN(C)CC4)cc3OC)(N3C[C@H](O)C[C@H]3c3ncco3)c3cc(Cl)ccc32)cc1 (stereo partly drawn) [Example 165, 5-Chloro-3-((2S,4R)-4-hydroxy-2-oxazol-2-yl-pyrrolidin-1-yl)-1-(4-methoxybenzenesulfonyl)-3-[2-methoxy-4-(4-methylpiperazin-1-ylmethyl)phenyl]-1,3-dihydroindol-2-one] and COc1ccc(S(=O)(=O)N2C(=O)C(c3ccc(CN4CCN(C(C)C)CC4)cc3OC)(N3C[C@H](O)C[C@H]3c3ncco3)c3cc(Cl)ccc32)cc1 (stereo partly drawn) [Example 166, 5-Chloro-3-((2S,4R)-4-hydroxy-2-oxazol-2-yl-pyrrolidin-1-yl)-3-[4-(4-isopropylpiperazin-1-ylmethyl)-2-methoxyphenyl]-1-(4-methoxybenzenesulfonyl)-1,3-dihydroindol-2-one] cannot be ordered by Ki: less than 10 nM for the first, less than 10 nM for the second.

COc1ccc(S(=O)(=O)N2C(=O)C(c3cc(CNC4CC4)ccc3OC)(N3CCC[C@H]3c3ncco3)c3cc(Cl)ccc32)cc1 (stereo partly drawn) [Example 168, 5-Chloro-3-(5-cyclopropylaminomethyl-2-methoxyphenyl)-1-(4-methoxybenzenesulfonyl)-3-((S)-2-oxazol-2-yl-pyrrolidin-1-yl)-1,3-dihydroindol-2-one] gave a Ki of less than 10 nM.
